Paper PMC8448092, “Inhibitory Compounds Targeting Plasmodium falciparum Gyrase B” (Antimicrobial Agents and Chemotherapy, 2021)
Where two headings read alike, the source gives them in different places.

Legend:
EcA2PfB2 [1] = target: T1, EcA2PfB2 (Plasmodium falciparum, UniProt Q8I528); assay: biochemical; assay type: biochemical, Plasmodium falciparum GyrB with Escherichia coli GyrA; settings: for Sensitivity of hybrid complex to known bacterial gyrase inhibitors: supercoiling, Fig. S1D and E
Experimental: (§1) A supercoiling assay was utilized to test a library of compounds previously selected for binding to EcA2PfB2 but not EcGyr. The library was a kind gift from Yasumitsu Kondoh, RIKEN. The EcGyr complex was used as a control allowing selection for specific compounds that target PfB. Supercoiling assays were carried out in a buffer consisting of 35 mM Tris-HCl (pH 7.5), 24 mM KCl, 4 mM MgCl2, 2 mM DTT, 1.8 mM spermidine, 1 mM ATP, 6.5% (wt/vol) glycerol, and 0.1 mg/ml bovine serum albumin (BSA). The hybrid (EcA2PfB2) complex or EcGyr complex was formed in the storage buffer (50 mM Tris-HCl [pH 7.5], 100 mM KCl, 10% [wt/vol] glycerol, 1 mM EDTA, 2 mM DTT). In a 30-μl reaction, the gyrase complex and 0.5 μg of pBR322 relaxed DNA (Inspiralis, United Kingdom) were assembled on ice and incubated at 37°C for 30 min. The reaction was then stopped by adding an equal volume of stop solution (40% sucrose, 100 mM Tris-HCl [pH 7.5], 1 mM EDTA, 0.5 mg/ml bromophenol blue) and extracted by mixing with 30 μl chloroform-isoamyl alcohol (24:1). The samples were centrifuged at 14,000 × g for 1 min, and the aqueous phase was collected and loaded onto a 1% 1× Tris-acetate-EDTA (TAE) agarose gel. The DNA products were resolved by electrophoresis at 80 V for 120 min and visualized by UV irradiation. The images were then analyzed using ImageJ v.1.47 to obtain the intensity of the supercoiled DNA band. Gyrase with 1% dimethyl sulfoxide (DMSO) was used as the control. The percentage of supercoiled DNA (% SC) was normalized using samples with gyrase in the absence of inhibitor as the full supercoiling control and was plotted against PPG concentration. Data were fitted to the equation % SC = ae^b^[PPG], where a and b are function parameters, using OriginLab Origin (Pro) v.2020b.

EcGyr [2] = target: T2, EcGyr (Escherichia coli, UniProt P0AES4+P0AES6); assay: DNA supercoiling assay, E. coli gyrase; assay type: biochemical; settings: relaxed pBR322, 37°C 30 min, 1% DMSO, n = 3; read-out: IC50 supercoiling inhibitory activity, EcGyr
T2 construct: made in house
Experimental: as §1, with “Gyrase with 1% dimethyl sulfoxide (DMSO) was used as the control. The percentage of supercoiled DNA (% SC) was normalized using samples with gyrase in the absence of inhibitor as the full supercoiling control and was plotted against PPG concentration. Data were fitted to the equation % SC = ae^b^[PPG], where a and b are function parameters, using OriginLab Origin (Pro) v.2020b.” left out

P. falciparum 3D7 [3] = settings: growth in vitro; ref [25], [33]; cited from earlier work
PfB [4] = target: T3, PfB (Plasmodium falciparum, UniProt Q8I528); assay: ATP hydrolysis assay (malachite green), PfB; assay type: biochemical; settings: 1 μM PfB
Experimental: (§2) The ATP hydrolysis reaction was performed as follows. Enzyme was incubated in the assay buffer (50 mM Tris-HCl [pH 7.5], 125 mM KCl, 1 mM EDTA, 5 mM MgCl2, 5 mM DTT, 10% glycerol) with test compounds at various concentrations, 1 mM ATP, and 10.5 nM linear pBR322 DNA for 30 min at room temperature. The protein concentrations used in the assay were as follows: 1 μM PfB, 0.5 μM EcA2PfB2, and 100 nM EcGyr. A malachite green assay kit (Sigma-Aldrich) was used to measure the released phosphate in the reaction. In brief, malachite green reagent was added to the reaction mixture, and the mixture was further incubated for 10 min. The formed color was measured at 620 nm using a plate reader (SpectraMAX190; Molecular Devices). The amount of released phosphate was calculated based on a calibration curve covering a linear range of 50 to 250 pmol using eight concentrations, which was prepared for each measurement independently. Experiments were carried out in triplicate.

EcA2PfB2 [5] = target: T1, EcA2PfB2; assay: DNA cleavage assay; assay type: biochemical, Plasmodium falciparum GyrB with Escherichia coli GyrA; settings: 150 nM EcA2PfB2, supercoiled DNA, no ATP
Experimental: 22 The purified proteins (2 µg) were subjected to a 10% SDS PAGE and resolved by
23 electrophoresis at 180 V for 40 minutes. The protein bands were visualized by Coommassie
26 The DNA cleavage assay was performed in the same buffer conditions as for
27 supercoiling but ATP was omitted and supercoiled DNA was used instead of relaxed DNA.
28 EcA2PfB2 complex (150 nM) was incubated with 0.5 µg of supercoiled DNA in the
29 absence/presence of inhibitors for 60 min at 37 °C. In order to monitor the production of
30 linearized DNA, protein was removed by addition of 3 µl of 2% SDS and 1 µl of proteinase K
31 (>700 U) followed by further incubation at 37 °C for 30 min. The DNA was then extracted and
32 resolved in gel electrophoresis as described.

P. falciparum 3D7 [6] = assay: P. falciparum growth inhibition in vitro (SYBR green); assay type: cell-based; settings: Plasmodium falciparum, 96 h of treatment
Experimental: Tests on parasites were performed by Anti-infectives Screening Core Services at NYU School of Medicine based on previously published protocol ([44]). P. falciparum strain 3D7 was used for all determinations. Using 96-well plates, 100 μl of P. falciparum growth medium (RPMI 1640, 25 mM HEPES, 0.1 mg/ml gentamicin, 0.05 mg/liter hypoxanthine [pH 6.75]), supplemented with 0.25% sodium bicarbonate and 0.5% Albumax II (Invitrogen), was added to each well. A 10 mM stock of PPG in DMSO was then serially diluted in triplicate. DMSO at the highest concentration used (0.5%) was tested in parallel as a control. Asynchronous P. falciparum in a 100-μl volume was then added to each well at 0.25% late-stage parasitemia with 5% hematocrit, as well as controls (medium, red blood cells, P. falciparum, or P. falciparum with 2 μM chloroquine). The plates were placed in a sealed chamber and maintained under atmospheric conditions of 5% oxygen, 5% carbon dioxide, and 90% nitrogen at 37°C for 96 h. To determine the cell viability, a SYBR green assay for rapid assessment was performed.
After incubation, plates were placed at −80°C for 24 h. The plates were then thawed at 37°C for 4 h. Once thawed, 100 μl of from each resuspended well was transferred into a black, 96-well plate. […] Plates were analyzed on a fluorescence plate reader (Victor) at excitation and emission wavelengths of 485 and 530 nm, respectively. […]

EcGyr [7] = target: T2, EcGyr; assay: ATP hydrolysis assay (malachite green), EcGyr; assay type: biochemical; settings: 100 nM EcGyr
Experimental: as §2

EcA2PfB2 [8] = target: T1, EcA2PfB2; assay: EMSA DNA binding, hybrid gyrase; parameters: species or system Plasmodium falciparum GyrB with Escherichia coli GyrA; settings: 147 bp DNA, 200 nM complex
Experimental: (§3) DNA binding assays were carried out using electrophoretic mobility shift assay (EMSA) with 147 bp dsDNA (based on the preferred gyrase cleavage site from plasmid pBR322) ([31]). In brief, 20 nM DNA was mixed with 200 nM reconstituted complex (hybrid or EcGyr) or 1 μM PfB in an assay buffer (30 mM Tris-HCl [pH 7.5], 75 mM KCl, 2 mM MgCl2, 6% glycerol, 1 mM DTT) and PPG for 1 h at room temperature. The samples were resolved in a 5% polyacrylamide gel in TBM buffer (90 mM Tris-borate, pH 7.5, 4 mM MgCl2) for 1 h at 80 V. The gel was stained with SYBR gold (Thermo) and visualized under UV light.

EcA2PfB2 [9] = target: T1, EcA2PfB2; assay: ATP hydrolysis assay (malachite green), hybrid gyrase; assay type: biochemical, Plasmodium falciparum GyrB with Escherichia coli GyrA
Experimental: as §2, with “Enzyme was incubated in the assay buffer (50 mM Tris-HCl [pH 7.5], 125 mM KCl, 1 mM EDTA, 5 mM MgCl2, 5 mM DTT, 10% glycerol) with test compounds at various concentrations, 1 mM ATP, and 10.5 nM linear pBR322 DNA for 30 min at room temperature.” left out

EcB = target: T4, EcB (Escherichia coli, UniProt P0AES6); assay: Microscale thermophoresis binding to EcB; settings: 1:1 binding model, 100 nM labeled protein, 5% DMSO, room temperature; read-out: Kd for EcB (MST)
T4 construct: made in house
Experimental: (§4) Microscale thermophoresis (MST) experiments were performed using a Monolith NT.115 instrument (NanoTemper). Proteins (PfB and EcB) were labeled with Red 2nd Generation labeling kits (NanoTemper) in which the fluorescent red dye was coupled with protein via NHS coupling. Labeled protein (100 nM) was mixed with PPG (Activate Scientific, dissolved in DMSO to a final concentration of 5%) and in MST buffer {240 mM NaPi (pH 7.4), 274 mM NaCl, 54 mM KCl, 100 μM TCEP [Tris(2-carboxyethyl)phosphine hydrochloride], 0.05% Tween 20, 5% DMSO} and incubated in the dark for 15 min. The samples were applied onto capillaries (Monolith NT.115 MST Premium coated capillaries), and the fluorescence signal was measured using MO.Control software (Nanotemper). Initial fluorescence signal was used for binding analysis, and Kd was calculated using 1:1 binding model. Results were baseline corrected and normalized for amplitude using MO.Control software (Nanotemper). The Kd values were calculated based on three independent measurements. All experiments were performed at room temperature.

EcGyr [10] = target: T2, EcGyr; assay: EMSA DNA binding, EcGyr; settings: 147 bp DNA, 200 nM complex
Experimental: as §3

PfB [11] = target: T3, PfB; assay: Microscale thermophoresis binding to PfB
Experimental: as §4

PfB [12] = target: T3, PfB; assay: EMSA DNA binding, PfB; settings: 147 bp DNA, 1 μM PfB
Experimental: as §3

O=C1c2ccccc2C(=O)c2c1cc(S(=O)(=O)O)c(O)c2O [ARS, 1,2-dihydroxy-3-(oxysulfonyl)-9,10-anthracenedione]
IC50 (EcA2PfB2 [1]): 55.6 ± 6.74 µM
IC50 (EcGyr [2]): > 100 µM

O=C(O)c1cn(C2CC2)c2cc(N3CCNCC3)c(F)cc2c1=O [CIP, ciprofloxacin, reference compound]
IC50 (P. falciparum 3D7 [3]): 3 ± 0.5 µM
Sensitivity of hybrid complex to known bacterial gyrase inhibitors (EcA2PfB2 [1]): sensitive

CO[C@@H]1[C@@H](OC(N)=O)[C@@H](O)[C@H](Oc2ccc3c(O)c(NC(=O)c4ccc(O)c(CC=C(C)C)c4)c(=O)oc3c2C)OC1(C)C [Novobiocin, reference compound]
Sensitivity of hybrid complex to known bacterial gyrase inhibitors (EcA2PfB2 [1]): sensitive

O=c1c(O)cccc2cc(O)c(O)c(O)c12 [PPG, 3,9,10,11-tetrahydroxybicyclo[5.4.0]undeca-1(7),3,5,8,10-pentaen-2-one]
Effect on DNA-enhanced ATP hydrolysis of PfB (PfB [4]; 10.5 nM linear pBR322 DNA, 1 mM ATP): decreased this DNA-enhanced ATP hydrolysis of PfB in a dose-dependent manner
Effect on intrinsic ATPase activity of PfB (PfB [4]; no DNA): remained unchanged
Linear DNA formation (cleavage complex stabilization) (EcA2PfB2 [5]): did not observe any linear DNA formation
IC50 (P. falciparum 3D7 [6]): 92 ± 16 µM
Effect on intrinsic and enhanced ATP hydrolysis by EcB in complex with EcA (EcGyr [7]): little affected
PPG concentration at which the DNA-EcA2PfB2 complex was disrupted (EcA2PfB2 [8]): 10 µM
Effect on ATPase activity of EcA2PfB2 in the absence of DNA (EcA2PfB2 [9]; 0.5 μM EcA2PfB2): decreased the ATPase activity in both the absence and presence of DNA
Effect on DNA-induced ATPase activity of EcA2PfB2 (EcA2PfB2 [9]; 0.5 μM EcA2PfB2, with DNA): inhibited the DNA-induced ATPase activity of EcA2PfB2, although this was more modest
Kd (EcB): ~4.54 µM
Effect on DNA-EcGyr complex (EcGyr [10]): remained intact
Kd (PfB [11]): ~1.03 µM
PPG concentration at which formation of the DNA-PfB complex was inhibited (PfB [12]): approximately 20 μM
IC50 (EcA2PfB2 [1]): 9.56 ± 1.94 µM
IC50 (EcGyr [2]): > 1000 µM
